For 25 compounds, IC50 results are on record in patent publication US20240190824A1, “INHIBITORS OF TREK (TWIK RELATED K+ CHANNELS) CHANNEL FUNCTION” (ONO PHARMACEUTICAL CO., LTD., priority 2019, published 2024).

Chain of human TREK-1 (O95069 whole entry): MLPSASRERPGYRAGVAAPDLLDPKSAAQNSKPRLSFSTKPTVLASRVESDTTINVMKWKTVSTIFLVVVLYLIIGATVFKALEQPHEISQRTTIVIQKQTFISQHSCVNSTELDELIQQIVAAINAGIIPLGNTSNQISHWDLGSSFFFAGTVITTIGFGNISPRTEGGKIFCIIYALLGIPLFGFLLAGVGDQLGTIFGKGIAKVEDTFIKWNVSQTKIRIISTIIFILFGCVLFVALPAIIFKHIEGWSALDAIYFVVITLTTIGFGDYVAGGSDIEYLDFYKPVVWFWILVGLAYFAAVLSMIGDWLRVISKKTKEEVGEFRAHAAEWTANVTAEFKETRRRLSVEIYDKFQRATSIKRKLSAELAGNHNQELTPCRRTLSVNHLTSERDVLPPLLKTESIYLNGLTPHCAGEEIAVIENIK

This assay concerns the target human TREK-1 (Homo sapiens (Human), UniProt O95069). Nature of the assay: TREK-1 Thallium (Tl+) flux assay. It is filed as cell-based. As to conditions: CHO-K1 cells stably expressing human TREK-1.
Broadly, the IC50 is the concentration needed to halve the response being measured. Low readings indicate inhibition by little substance, high ones a need for much substance. For the compound `Cc1cc(C#Cc2ccccc2)cnc1N1Cc2ccc(NC(=O)OC(C)(C)C)cc2C1=O` [Compound 44, tert-butyl N-[2-[3-methyl-5-(2-phenylethynyl)-2-pyridyl]-3-oxo-isoindolin-5-yl]carbamate], the IC50 came to 580 nM. In other words, the sub-micromolar range.
Take `Cc1cc(C#Cc2ccccc2)cnc1NC(=O)c1cc(C(=O)N2CC(F)C2)ccc1Cl` [Compound 73, 2-chloro-5-(3-fluoroazetidine-1-carbonyl)-N-[3-methyl-5-(2-phenylethynyl)-2-pyridyl]benzamide]: the IC50 was determined as 390 nM.
Take `CC(C)(C)OC(=O)Nc1ccc(Cl)c(C(=O)Nc2ncc(C#Cc3ccccc3)cc2F)n1` [Compound 38, tert-butyl N-[5-chloro-6-[[3-fluoro-5-(2-phenylethynyl)-2-pyridyl]carbamoyl]-2-pyridyl]carbamate]: the midpoint of inhibition, the IC50, lay at 440 nM.
To `Cc1cc(C#Cc2ccccc2)cnc1NC(=O)c1cc(-c2cnn(C3CCOC3)c2)ccc1Cl` (stereo not shown) [Compound 66, 2-chloro-N-(3-methyl-5-(phenylethynyl)pyridin-2-yl)-5-(1-(tetrahydrofuran-3-yl)-1H-pyrazol-4-yl)benzamide] belongs 220 nM; to `Cc1cc(C#Cc2ccccc2)cnc1NC(=O)c1nc(NC(=O)C2CC2C)ccc1Cl` (stereo not shown) [Compound 33, 3-chloro-6-[(2-methylcyclopropanecarbonyl)amino]-N-[3-methyl-5-(2-phenylethynyl)-2-pyridyl]pyridine-2-carboxamide], 290 nM.
To `C[C@H]1C[C@@H]1C(=O)Nc1ccc(Cl)c(C(=O)Nc2ncc(C#Cc3ccccc3)cc2F)c1` [Compound 2, 2-chloro-N-[3-fluoro-5-(2-phenylethynyl)-2-pyridyl]-5-[[(1S,2S)-2-methylcyclopropanecarbonyl]amino]benzamide] belongs 90 nM; to `Cc1cc(C#Cc2ccccc2)cnc1NC(=O)c1nc(NC(=O)OC(C)(C)C)ccc1Cl` [Compound 43, tert-butyl N-[5-chloro-6-[[3-methyl-5-(2-phenylethynyl)-2-pyridyl]carbamoyl]-2-pyridyl]carbamate], 550 nM; to `Cc1cc(OCc2ccccc2)cnc1NC(=O)c1cc(NC(=O)OC(C)(C)C)ccc1Cl` [Compound 87, tert-butyl N-[3-[(5-benzyloxy-3-methyl-2-pyridyl)carbamoyl]-4-chloro-phenyl]carbamate], 560 nM.
To `Cc1cc(C#Cc2cccc(F)c2)cnc1NC(=O)c1cc(C(=O)N2CC(C)(O)C2)ccc1Cl` [Compound 18, 2-chloro-N-[5-[2-(3-fluorophenyl)ethynyl]-3-methyl-2-pyridyl]-5-(3-hydroxy-3-methyl-azetidine-1-carbonyl)benzamide] belongs 240 nM; to `CC(=O)Nc1ccc(Cl)c(C(=O)Nc2ccc(OCc3ccccc3)cc2C)c1` [Compound 91], 1030 nM.
On to `CC1CC1C(=O)Nc1ccc(Cl)c(C(=O)Nc2ncc(C#Cc3ccccc3)cc2F)c1` (stereo not shown) [Compound 3, 2-chloro-N-[3-fluoro-5-(2-phenylethynyl)-2-pyridyl]-5-[(2-methylcyclopropanecarbonyl)amino]benzamide], for which half-maximal inhibition (IC50) required 70 nM.
To `Cc1cc(C#Cc2ccccc2)cnc1NC(=O)c1cc(-c2cnn(C3COC3)c2)ccc1Cl` [Compound 58, 2-chloro-N-[3-methyl-5-(2-phenylethynyl)-2-pyridyl]-5-[1-(oxetan-3-yl)pyrazol-4-yl]benzamide] belongs 130 nM.
To `O=C(Nc1ncc(C#Cc2ccccc2)cc1F)c1cc(-c2cnn(C3COC3)c2)ccc1Cl` [Compound 56, 2-chloro-N-[3-fluoro-5-(2-phenylethynyl)-2-pyridyl]-5-[1-(oxetan-3-yl)pyrazol-4-yl]benzamide] belongs 110 nM.
In turn, `Cc1cc(-c2cnn(-c3ccccc3)c2)cnc1NC(=O)c1cc(NC(=O)OC(C)(C)C)ccc1Cl` [Compound 93, tert-butyl N-[4-chloro-3-[[3-methyl-5-(1-phenylpyrazol-4-yl)-2-pyridyl]carbamoyl]phenyl]carbamate] came in with an IC50 of 190 nM.
Compound `O=C(Nc1ncc(C#Cc2ccccc2)cc1F)c1cc(NC(=O)C2COCCO2)ccc1Cl` (stereo not shown) [Compound 10, N-[4-chloro-3-[[3-fluoro-5-(2-phenylethynyl)-2-pyridyl]carbamoyl]phenyl]-1,4-dioxane-2-carboxamide] yielded an IC50 of 200 nM.
To `Cc1cc(C#Cc2ccccc2)cnc1NC(=O)c1cc(-c2nnco2)ccc1Cl` [Compound 77, 2-chloro-N-[3-methyl-5-(2-phenylethynyl)-2-pyridyl]-5-(1,3,4-oxadiazol-2-yl)benzamide] belongs 470 nM; to `C[C@H]1C[C@@H]1C(=O)Nc1ccc(Cl)c(C(=O)Nc2ncc(C#Cc3cccc(F)c3)cc2F)c1` [Compound 4, 2-chloro-N-[3-fluoro-5-[2-(3-fluorophenyl)ethynyl]-2-pyridyl]-5-[[(1S,2S)-2-methylcyclopropanecarbonyl]amino]benzamide], 130 nM; to `Cc1cc(C#Cc2ccccc2)cnc1NC(=O)c1cc(-c2c(C)cnn2C)ccc1Cl` [Compound 76, 2-chloro-5-(2,4-dimethylpyrazol-3-yl)-N-[3-methyl-5-(2-phenylethynyl)-2-pyridyl]benzamide], 450 nM.
To `Cc1cc(C#Cc2ccccc2)cnc1NC(=O)c1cc(-c2noc(C3CCOC3)n2)ccc1Cl` (stereo not shown) [Compound 19, 2-chloro-N-[3-methyl-5-(2-phenylethynyl)-2-pyridyl]-5-(5-tetrahydrofuran-3-yl-1,2,4-oxadiazol-3-yl)benzamide] belongs 50 nM; to `Cc1cc(C#Cc2ccccc2F)cnc1NC(=O)c1cc(NC(=O)OC(C)(C)C)ccc1Cl` [Compound 42, tert-butyl N-[4-chloro-3-[[5-[2-(2-fluorophenyl)ethynyl]-3-methyl-2-pyridyl]carbamoyl]phenyl]carbamate], 540 nM; to `Cc1cc(-c2cnn(-c3ccc(F)cc3)c2)cnc1NC(=O)c1cc(NC(=O)OC(C)(C)C)ccc1Cl` [Compound 94, tert-butyl N-[4-chloro-3-[[5-[1-(4-fluorophenyl)pyrazol-4-yl]-3-methyl-2-pyridyl]carbamoyl]phenyl]carbamate], 200 nM.
Compound `Cc1cc(C#Cc2ccccc2)nc(C)c1NC(=O)c1cc(NC(=O)OC(C)(C)C)ccc1Cl` [Compound 48, tert-butyl N-[4-chloro-3-[[2,4-dimethyl-6-(2-phenylethynyl)-3-pyridyl]carbamoyl]phenyl]carbamate] gave an IC50 of 950 nM. This IC50 is about 4.8-fold higher than that of the compound before.
To `Cc1cc(C#Cc2ccccc2)cnc1NC(=O)c1cc(NC(=O)C2CC(C)(O)C2)ccc1Cl` (stereo not shown) [Compound 32, 2-chloro-5-[(3-hydroxy-3-methyl-cyclobutanecarbonyl)amino]-N-[3-methyl-5-(2-phenylethynyl)-2-pyridyl]benzamide] belongs 280 nM; to `Cc1cc(C#Cc2ccccc2)cnc1NC(=O)c1cc(NC(=O)[C@@H]2C[C@H]2C)ccc1Cl` [Compound 36, 2-chloro-5-[[(1R,2R)-2-methylcyclopropanecarbonyl]amino]-N-[3-methyl-5-(2-phenylethynyl)-2-pyridyl]benzamide], 420 nM; to `Cc1cc(C#Cc2ccccc2)cnc1NC(=O)c1cc(-c2cn(C)nc2C)ccc1Cl` [Compound 74, 2-chloro-5-(1,3-dimethylpyrazol-4-yl)-N-[3-methyl-5-(2-phenylethynyl)-2-pyridyl]benzamide], 410 nM.
